Measurements taken from patent US20170158699A1, “ADDITION SALTS OF (S)-2-(1-(6-AMINO-5-CYANOPYRIMIDIN-4-YLAMINO)ETHYL)-4-OXO-3-PHENYL-3,4-DIHYDROPYRROLO[1,2-F][1,2,4]TRIAZINE-5-CARBONITRILE” (Almirall, S.A., priority 2014, published 2017).
≈ marks a conversion by molar mass, not a printed value. Where two headings read alike, the source gives them in different places.

Legend:
Type in all cases: physicochemical
[1] = Gravimetric Vapour Sorption (GVS) isotherm, XRPD checked afterwards; conditions: for Hygroscopicity / water sorption behaviour (GVS): 0-90% RH; for Hygroscopicity / water sorption behaviour (GVS) / GVS mass change: 25° C.; for Change in form or crystallinity (XRPD) after GVS measurement: XRPD before and after GVS; for GVS mass change: from 0-90% RH
Experimental: X-Ray Powder Diffraction (XRPD) patterns were collected on a Bruker D8 diffractometer using Cu Ka radiation (40 kV, 40 mA), θ-2θ goniometer, and divergence of V4 and receiving slits, a Ge monochromator and a Lynxeye detector. The instrument is performance checked using a certified Corundum standard (NIST 1976). The software used for data collection was Diffrac Plus XRD Commander v2.6.1 and the data were analysed and presented using Diffrac Plus EVA v13.0.0.2 or v15.0.0.0.
Samples were run under ambient conditions as flat plate specimens using powder as received. The sample was gently packed into a cavity cut into polished, zero-background (510) silicon wafer. The sample was rotated in its own plane during analysis. The details of the data collection were: • Angular range: 2 to 42° 2θ • Step size: 0.05° 2θ • Collection time: 0.5 s/step
Gravimetric Vapour Sorption (GVS; also known as Dynamic Vapour Sorption or DVS) isotherms were obtained using a SMS DVS Intrinsic moisture sorption analyser, controlled by DVS Intrinsic Control software v1.0.1.2. The sample temperature was maintained at 25° C. by the instrument controls. The humidity was controlled by mixing streams of dry and wet nitrogen, with a total flow rate of 200 mL/min The relative humidity was measured by a calibrated Rotronic probe (dynamic range of 1.0-100% RH), located near the sample. The weight change, (mass relaxation) of the sample as a function of % RH was constantly monitored by the microbalance (accuracy ±0.005 mg).
Typically 5-20 mg of sample were placed in a tared mesh stainless steel basket under ambient conditions. The sample was loaded and unloaded at 40% RH and 25° C. (typical room conditions). A moisture sorption isotherm was performed as outlined below (4 scans giving 2 complete cycles). The standard isotherm was performed at 25° C. at 10% RH intervals over a 0-90% RH range.

[2] = Differential scanning calorimetry (DSC) thermal stability
Experimental: The differential scanning calorimetry (DSC) thermograms were obtained using a TA Instruments Q2000 equipped with a 50 position auto-sampler. The calibration for thermal capacity was carried out using sapphire and the calibration for energy and temperature was carried out using certified indium. […] (some runs up to 400° C.). A purge of dry nitrogen at 50 ml/min was maintained over the sample.

Water-solubility test = conditions: room temperature (25° C.)

Hygroscopicity / water sorption behaviour (GVS) [1]	Change in form or crystallinity (XRPD) after GVS measurement [1]	GVS mass change [1]	Stability of the sample up to temperature (DSC) [2]	solubility (Water-solubility test)	Molecule	Stability of the sample up to temperature (DSC) ([2]; heated at 10° C./min, dry nitrogen purge)	Water Solubility @ 25° C. (Water-solubility test)
reversible and no hydrates were formed	no change in form or crystallinity	approx. 3.3%	more than 250 °C	–	C[C@H](Nc1ncnc(N)c1C#N)c1nn2ccc(C#N)c2c(=O)n1-c1ccccc1.O=S(=O)(O)c1ccc2ccccc2c1 [Example 2, (S)-2-(1-(6-amino-5-cyanopyrimidin-4-ylamino)ethyl)-4-oxo-3-phenyl-3,4-dihydropyrrolo[1,2-f][1,2,4]triazine-5-carbonitrile naphthalene-2-sulfonate]	–	–
not hygroscopic	no change in form or crystallinity	approx. 0.3%	more than 250 °C	–	C[C@H](Nc1ncnc(N)c1C#N)c1nn2ccc(C#N)c2c(=O)n1-c1ccccc1.Cc1ccc(S(=O)(=O)O)cc1 [Example 3, (S)-2-(1-(6-amino-5-cyanopyrimidin-4-ylamino)ethyl)-4-oxo-3-phenyl-3,4-dihydropyrrolo[1,2-f][1,2,4]triazine-5-carbonitrile para-toluenesulfonate]	–	–
–	–	–	–	1 µg/mL (≈ 2.52 µM)	C[C@H](Nc1ncnc(N)c1C#N)c1nn2ccc(C#N)c2c(=O)n1-c1ccccc1 [Example C1, (S)-2-(1-(6-amino-5-cyanopyrimidin-4-ylamino)ethyl)-4-oxo-3-phenyl-3,4-dihydropyrrolo[1,2-f][1,2,4]triazine-5-carbonitrile]	–	–

Molecule	Hygroscopicity / water sorption behaviour (GVS) [1]	Change in form or crystallinity (XRPD) after GVS measurement [1]	GVS mass change [1]	Stability of the sample up to temperature (DSC) [2]	solubility (Water-solubility test)	Stability of the sample up to temperature (DSC) ([2]; heated at 10° C./min, dry nitrogen purge)	Water Solubility @ 25° C. (Water-solubility test)
(S)-2-(1-(6-amino-5-cyanopyrimidin-4-ylamino)ethyl)-4-oxo-3-phenyl-3,4-dihydropyrrolo[1,2-f][1,2,4]triazine-5-carbonitrile methanesulfonate [Example 1]	not hygroscopic	no change in form or crystallinity	approx. 1.2%	–	–	more than 300 °C	60 µg/mL
